In paper PMC8296573, “Synthesis and Biological Evaluation of Fingolimod Derivatives as Antibacterial Agents” (ACS Omega, 2021):
Values after ≈ are worked out from the molar mass of the structure shown. Where two headings read alike, the source gives them in different places.

What was measured:
[1] = Cytotoxicity, resazurin staining assay; type: cell-based, human; details: human, 24 h incubation
In short: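 A549 and HEp-2 cells (1 × 10^4/well) attached for 24 h before compound addition; HL-60 seeded directly with compounds; 0.25% DMSO final, 24 h exposure. Adherent cells then washed and given 20 μM resazurin for 2 h; HL-60 received resazurin directly for 4 h; fluorescence read-out, 1% Triton X-100 as positive control.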

[2] = test system: S. aureus ATCC 12598; assay: Antibacterial activity, pre-exposure; type: cell-based, Staphylococcus aureus; details: for Average inhibition %, biofilms viability / Average inhibition %, planktonic cells viability / inhibition at 5 µM / inhibition at 10 µM / inhibition at 15 µM / inhibition at 25 µM: S. aureus ATCC 12598, pre-exposure, ± SD
In short: (§1)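 Compounds in DMSO were plated before bacteria were added (pre-exposure) and incubated 18 h aerobically at 37 °C with shaking. Planktonic cells were read by OD and resazurin fluorescence (20 μM final; ex 560/em 590 nm). Biofilms were read by resazurin, then crystal violet (A595) for total biomass.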

[3] = test system: S. aureus P2; assay: Antibacterial activity, pre-exposure; type: cell-based, Staphylococcus aureus; details: for Average inhibition %, biofilms viability / Average inhibition %, planktonic cells viability / inhibition at 5 µM / inhibition at 10 µM / inhibition at 15 µM / inhibition at 25 µM: S. aureus P2, pre-exposure, ± SD
In short: as §1

[4] = Colloidal aggregation by nephelometry; type: physicochemical; details: 25 µM
Description: 3. Aggregation data (Figure S3)
Potential colloidal aggregation in biological assays was studied at five concentrations (5 µM, 10 µM, 15 µM,
25 µM, 50 µM). The original assay conditions were simulated, and the light scattering of potential aggregates
in the mixture was studied by nephelometric methods using Nepheloskan Ascent (Labsystems, Finland).
Aggregation of the blank and compounds fingolimod, 43, 45, 55, 62, 79 and 82 were measured as triplicates
from one independent experiment at 400 V and at room temperature.
formation at 50 µM. […] However, at 15
µM, 10 µM and 5 µM, the obtained values were close to those observed by blank, therefore indicating only
minor or no detectable aggregation.
Figure S3: Aggregation data for fingolimod and compounds 43, 45, 55, 62, 79, 82. RNU = relative nephelometric unit.
The data are shown as the mean ± SD and normalized to the blank.
(1 picture or pasted object on this page, not shown here)

CCCCCCCCc1ccc(CCC(N)(CO)CO)cc1 [fingolimod, Fingolimod]
CC50 at 24 h ([1]; A549 cells): > 40 µM
CC50 at 24 h ([1]; HEp-2 cells): > 40 µM
CC50 at 24 h ([1]; HL-60 cells): 36.1 ± 13.4 µM
Average inhibition %, biofilms viability ([2]; 5 µM): 16.9 ± 2.9%
Average inhibition %, planktonic cells viability ([2]; 5 µM): 2.9 ± 2.9%
Average inhibition %, biofilms viability ([2]; 10 µM): 35.8 ± 17.9%
Average inhibition %, planktonic cells viability ([2]; 10 µM): 34 ± 29.5%
Average inhibition %, biofilms viability ([2]; 15 µM): 99.2 ± 0.5%
Average inhibition %, planktonic cells viability ([2]; 15 µM): 99.7 ± 0%
Average inhibition %, biofilms viability ([2]; 25 µM): 99.6 ± 0.3%
Average inhibition %, planktonic cells viability ([2]; 25 µM): 99.7 ± 0%
inhibition at 5 µM ([2]; Staphylococcus aureus, ATCC12598, 5 µM, read-out: Average inhibition %, biofilms biomass): 18.5 ± 17.7%
inhibition at 5 µM ([2]; Staphylococcus aureus, ATCC12598, 5 µM, read-out: Average inhibition %, planktonic cells turbidity): 6.3 ± 8.7%
inhibition at 10 µM ([2]; Staphylococcus aureus, ATCC12598, 10 µM, read-out: Average inhibition %, biofilms biomass): 43.2 ± 15.8%
inhibition at 10 µM ([2]; Staphylococcus aureus, ATCC12598, 10 µM, read-out: Average inhibition %, planktonic cells turbidity): 21.5 ± 27.1%
inhibition at 15 µM ([2]; Staphylococcus aureus, ATCC12598, 15 µM, read-out: Average inhibition %, biofilms biomass): 94.5 ± 1.1%
inhibition at 15 µM ([2]; Staphylococcus aureus, ATCC12598, 15 µM, read-out: Average inhibition %, planktonic cells turbidity): 99.6 ± 0.1%
inhibition at 25 µM ([2]; Staphylococcus aureus, ATCC12598, 25 µM, read-out: Average inhibition %, biofilms biomass): 95.2 ± 0.4%
inhibition at 25 µM ([2]; Staphylococcus aureus, ATCC12598, 25 µM, read-out: Average inhibition %, planktonic cells turbidity): 99.2 ± 0.1%
MIC ([2]; Staphylococcus aureus, ATCC12598, pre-exposure, 18 h, read-out: MIC S. aureus ATCC 12598): 15 µM (≈ 4.61 µg/mL)
Average inhibition %, biofilms viability ([3]; 5 µM): 18.2 ± 17%
Average inhibition %, planktonic cells viability ([3]; 5 µM): 4.3 ± 7.4%
Average inhibition %, biofilms viability ([3]; 10 µM): 55.4 ± 38%
Average inhibition %, planktonic cells viability ([3]; 10 µM): 45 ± 45.6%
Average inhibition %, biofilms viability ([3]; 15 µM): 99.8 ± 0%
Average inhibition %, planktonic cells viability ([3]; 15 µM): 99.8 ± 0%
Average inhibition %, biofilms viability ([3]; 25 µM): 99.8 ± 0.1%
Average inhibition %, planktonic cells viability ([3]; 25 µM): 99.7 ± 0%
MIC ([3]; Staphylococcus aureus, P2, pre-exposure, 18 h): 15 µM (≈ 4.61 µg/mL)
inhibition at 5 µM ([3]; Staphylococcus aureus, 5 µM, read-out: Average inhibition %, biofilms biomass): 34.9 ± 19%
inhibition at 5 µM ([3]; Staphylococcus aureus, 5 µM, read-out: Average inhibition %, planktonic cells turbidity): 3.3 ± 5.8%
inhibition at 10 µM ([3]; Staphylococcus aureus, 10 µM, read-out: Average inhibition %, biofilms biomass): 64.3 ± 29.1%
inhibition at 10 µM ([3]; Staphylococcus aureus, 10 µM, read-out: Average inhibition %, planktonic cells turbidity): 39.5 ± 45.1%
inhibition at 15 µM ([3]; Staphylococcus aureus, 15 µM, read-out: Average inhibition %, biofilms biomass): 98.3 ± 0.1%
inhibition at 15 µM ([3]; Staphylococcus aureus, 15 µM, read-out: Average inhibition %, planktonic cells turbidity): 99.6%
inhibition at 25 µM ([3]; Staphylococcus aureus, 25 µM, read-out: Average inhibition %, biofilms biomass): 98 ± 0.4%
inhibition at 25 µM ([3]; Staphylococcus aureus, 25 µM, read-out: Average inhibition %, planktonic cells turbidity): 99.3 ± 0.1%
Aggregation (nephelometry) [4]: potential aggregation
